# How the values were obtained:
# Format in all cases: in vivo
# [1] = system: barnyardgrass (Echinochloa crusgalli); assay: Test B flooded paddy test, visual plant response rating 0-100; conditions: 250 g ai/ha, Flood, applied to paddy water, evaluated after 13 days
# Method in brief: (§1)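 Plants were grown to the 2-leaf stage, then pots were flooded to 3 cm above the soil and test compounds were applied directly into the paddy water. Water depth was held there throughout; after 13 days in a greenhouse, injury was scored visually against untreated controls.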
# [2] = system: sedge, umbrella (small-flower umbrella sedge, Cyperus difformis); assay: as above; conditions: 250 g ai/ha, Flood, applied to paddy water, evaluated after 13 days
# Method in brief: as §1
# [3] = system: rice (Oryza sativa); assay: as above; conditions: 250 g ai/ha, Flood, applied to paddy water, evaluated after 13 days
# Method in brief: as §1
# [4] = system: ducksalad (Heteranthera limosa); assay: as above; conditions: 250 g ai/ha, Flood, applied to paddy water, evaluated after 13 days
# Method in brief: as §1
# [5] = system: barnyardgrass (Echinochloa crus-galli); assay: Test A preemergence soil spray, visual injury rating 0-100; conditions: 10 days, 0 = no effect, 100 = complete control
# Method in brief: (§2)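 Greenhouse test: loam/sand pots received a surfactant-containing formulation, as a preemergence directed soil spray or a postemergence spray on young plants. Injury was judged visually at day 10 relative to untreated controls.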
# [6] = system: green foxtail (Setaria viridis); assay: as above; conditions: 10 days, 0 = no effect, 100 = complete control
# Method in brief: as §2
# [7] = system: soybean (Glycine max); assay: as above; conditions: 10 days, 0 = no effect, 100 = complete control
# Method in brief: as §2
# [8] = system: oat, wild (wild oat, Avena fatua); assay: as above; conditions: 10 days, 0 = no effect, 100 = complete control
# Method in brief: as §2
# [9] = system: ragweed (common ragweed, Ambrosia artemisiifolia); assay: as above; conditions: 10 days, 0 = no effect, 100 = complete control
# Method in brief: as §2
# [10] = system: corn (Zea mays); assay: as above; conditions: 10 days, 0 = no effect, 100 = complete control
# Method in brief: as §2
# [11] = system: kochia (Bassia scoparia); assay: as above; conditions: 10 days, 0 = no effect, 100 = complete control
# Method in brief: as §2
# [12] = system: palmer (palmer amaranth, palmer pigweed, Amaranthus palmeri); assay: as above; conditions: 10 days, 0 = no effect, 100 = complete control
# Method in brief: as §2
# [13] = system: blackgrass (Alopecurus myosuroides); assay: as above; conditions: 10 days, 0 = no effect, 100 = complete control
# Method in brief: as §2
# [14] = system: ryegrass, Italian (italian ryegrass, Lolium multiflorum); assay: as above; conditions: 10 days, 0 = no effect, 100 = complete control
# Method in brief: as §2
# [15] = system: wheat (Triticum aestivum); assay: as above; conditions: 10 days, 0 = no effect, 100 = complete control
# Method in brief: as §2
# [16] = system: barnyardgrass (Echinochloa crus-galli); assay: Test A postemergence application, visual injury rating 0-100; conditions: 10 days
# Method in brief: as §2
# [17] = system: green foxtail (Setaria viridis); assay: as above; conditions: 10 days
# Method in brief: as §2
# [18] = system: soybean (Glycine max); assay: as above; conditions: 10 days
# Method in brief: as §2
# [19] = system: oat, wild (wild oat, Avena fatua); assay: as above; conditions: 10 days
# Method in brief: as §2
# [20] = system: horseweed (Erigeron canadensis); assay: as above; conditions: 10 days
# Method in brief: as §2
# [21] = system: ragweed (common ragweed, Ambrosia artemisiifolia); assay: as above; conditions: 10 days
# Method in brief: as §2
# [22] = system: corn (Zea mays); assay: as above; conditions: 10 days
# Method in brief: as §2
# [23] = system: kochia (Bassia scoparia); assay: as above; conditions: 10 days
# Method in brief: as §2
# [24] = system: palmer (palmer amaranth, palmer pigweed, Amaranthus palmeri); assay: as above; conditions: 10 days
# Method in brief: as §2
# [25] = system: blackgrass (Alopecurus myosuroides); assay: as above; conditions: 10 days
# Method in brief: as §2
# [26] = system: ryegrass, Italian (italian ryegrass, Lolium multiflorum); assay: as above; conditions: 10 days
# Method in brief: as §2
# [27] = system: wheat (Triticum aestivum); assay: as above; conditions: 10 days
# Method in brief: as §2
# [28] = 31 g ai/ha, postemergence, 0 = no effect, 100 = complete control
# [29] = Postemergence, 125 g ai/ha, 0 is no effect, 100 is complete control
smiles,measurement,setting,value
CCOC(=O)C1CCC(NC(=O)C2(C)CN(c3cc(F)cc(F)c3)C(=O)O2)C1 (centres unmarked) [Compound 11],"Plant response rating, Barnyardgrass (0 to 100 scale, 0 is no effect and 100 is complete control)",[1],50
same,"Plant response rating, Sedge, Umbrella (0 to 100 scale, 0 is no effect and 100 is complete control)",[2],60
same,"Plant response rating, Rice (0 to 100 scale, 0 is no effect and 100 is complete control)",[3],25
same,"Plant response rating, Ducksalad (0 to 100 scale, 0 is no effect and 100 is complete control)",[4],65
same,Barnyardgrass plant response rating (0-100),[5]; 31 g ai/ha,0
same,Barnyardgrass plant response rating (0 to 100 scale),[5]; 125 g ai/ha,100
same,"Foxtail, Green plant response rating (0-100)",[6]; 31 g ai/ha,0
same,"Foxtail, Green plant response rating (0 to 100 scale)",[6]; 125 g ai/ha,100
same,Soybean plant response rating (0-100),[7]; 31 g ai/ha,0
same,Soybean plant response rating (0 to 100 scale),[7]; 125 g ai/ha,20
same,"Oat, Wild plant response rating (0-100)",[8]; 31 g ai/ha,20
same,"Oat, Wild plant response rating (0 to 100 scale)",[8]; 125 g ai/ha,80
same,Ragweed plant response rating (0-100),[9]; 31 g ai/ha,0
same,Ragweed plant response rating (0 to 100 scale),[9]; 125 g ai/ha,70
same,Corn plant response rating (0-100),[10]; 31 g ai/ha,0
same,Corn plant response rating (0 to 100 scale),[10]; 125 g ai/ha,50
same,Kochia plant response rating (0-100),[11]; 31 g ai/ha,0
same,Kochia plant response rating (0 to 100 scale),[11]; 125 g ai/ha,50
same,"Amaranth, Palmer plant response rating (0-100)",[12]; 31 g ai/ha,0
same,"Amaranth, Palmer plant response rating (0 to 100 scale)",[12]; 125 g ai/ha,30
same,Blackgrass plant response rating (0-100),[13]; 31 g ai/ha,20
same,Blackgrass plant response rating (0 to 100 scale),[13]; 125 g ai/ha,90
same,"Ryegrass, Italian plant response rating (0-100)",[14]; 31 g ai/ha,40
same,"Ryegrass, Italian plant response rating (0 to 100 scale)",[14]; 125 g ai/ha,90
same,Wheat plant response rating (0-100),[15]; 31 g ai/ha,90
same,Wheat plant response rating (0 to 100 scale),[15]; 125 g ai/ha,100
same,Barnyardgrass plant response rating (0-100),[16]; [28],60
same,Barnyardgrass plant response rating (0 to 100 scale),[16]; [29],100
same,"Foxtail, Green plant response rating (0-100)",[17]; [28],30
same,"Foxtail, Green plant response rating (0 to 100 scale)",[17]; [29],90
same,Soybean plant response rating (0-100),[18]; [28],50
same,Soybean plant response rating (0 to 100 scale),[18]; [29],60
same,"Oat, Wild plant response rating (0-100)",[19]; [28],80
same,"Oat, Wild plant response rating (0 to 100 scale)",[19]; [29],90
same,Horseweed plant response rating (0-100),[20]; [28],30
same,Horseweed plant response rating (0 to 100 scale),[20]; [29],20
same,Ragweed plant response rating (0-100),[21]; [28],0
same,Ragweed plant response rating (0 to 100 scale),[21]; [29],0
same,Corn plant response rating (0-100),[22]; [28],10
same,Corn plant response rating (0 to 100 scale),[22]; [29],80
same,Kochia plant response rating (0-100),[23]; [28],20
same,Kochia plant response rating (0 to 100 scale),[23]; [29],80
same,"Amaranth, Palmer plant response rating (0-100)",[24]; [28],30
same,"Amaranth, Palmer / Pigweed, Palmer plant response rating (0 to 100 scale)",[24]; [29],60
same,Blackgrass plant response rating (0-100),[25]; [28],30
same,Blackgrass plant response rating (0 to 100 scale),[25]; [29],90
same,"Ryegrass, Italian plant response rating (0-100)",[26]; [28],50
same,"Ryegrass, Italian plant response rating (0 to 100 scale)",[26]; [29],70
same,Wheat plant response rating (0-100),[27]; [28],80
same,Wheat plant response rating (0 to 100 scale),[27]; [29],90

# From patent US20260285850A1, “SUBSTITUTED OXAZOLIDINONES AND IMIDAZOLINONES AS HERBICIDES” (FMC CORPORATION, priority 2023, published 2026)
